Key:
Type in all cases: cell-based
human PBMCs [1] = assay: Treg (FoxP3/Helios) flow cytometry in stimulated human PBMC
Description: (§1) A fraction of the cells was taken for staining on day 3 post-stimulation, while the rest of the cells were split 1:4 with fresh medium and used for staining on day 7 post-stimulation. To determine the fraction of natural Treg (nTreg) cells (FoxP3^+Helios^+), PBMCs were washed, stained with fluorescently labeled anti-CD4 antibodies, fixed, permeabilized and stained with a mixture of fluorescent anti-FoxP3 and anti-Helios antibodies. Labeled cells were analyzed by flow cytometry for populations stained for these three markers. Each experiment was performed in triplicate and was repeated five times.
as §1, with “(FoxP3^+Helios^−),” for “(FoxP3^+Helios^+),”, “three” for “five”
as §1, with “day 2” for “day 3”, “(FoxP3^+Helios^+), PBMC” for “(FoxP3^+Helios^+), PBMCs”

[2] = tested on: co-cultured mouse C57BL/6+DBA1 splenocytes; assay: Cytokines in C57BL/6 + DBA1 splenocyte co-culture; details: 30 μM; day 6 after mixing
Description: In order to stimulate T cells in mice, splenocytes obtained from two different mouse strains, C57BL/6 and DBA1, were mixed in culture.
The effect of compound 10 on production of cytokines (IFN-γ, IL-5, TNF-α, IL-2, IL-6, IL-4, IL-10, IL-9, IL17A, IL17F, IL-21, IL-22 and IL-13) in mouse splenocyte co-cultures was determined as follows. Splenocytes obtained from two different mouse strains, C57BL/6 and DBA1, were mixed in culture in the presence or absence of 30 μM compound 10. Cytokine production of IFN-γ, IL-5, TNF-α, IL-2, IL-6, IL-4, IL-10, IL-9, IL-17A, IL-17F, IL-21, IL-22 and IL-13 was measured in the co-culture supernatant at day 4 and day 6 after mixing. Cytokine levels were determined by LEGENDplex™ bead-based immunoassays from BioLegend (San Diego, Calif.) according to the manufacturer's instructions.

human PBMCs [3] = assay: Intracellular cytokine staining in cell populations of human PBMC; details: 2 days after stimulation
Description: In a first experiment, human PBMCs from two different donors were incubated overnight in the presence or absence of compound 10 (10 μM). […] The cells were fixed four hours later and stained with antibodies for cell type markers (FITC-anti-CD3 and PerCP-C95.5-anti-CD4) and IL-2 (PE-anti-IL-2). The cells were analyzed by flow cytometry. The fraction of cells with intracellular IL-2 (PE-labeled) was then determined in the CD4^+ and CD8^+ T cell populations, as well as in non-T cells.
In a second experiment, human PBMCs from two different donors were stimulated with anti-CD3 and anti-CD28 antibodies and incubated in the absence or presence of increasing concentrations of compound 10 (0, 0.1, 0.3, 1.0, or 3.0 μM). The vesicular transport was blocked two days later with GolgiStop™. The cells were fixed four hours later and stained with antibodies for cell type markers (FITC-anti-CD3, PerCP-Cy5.5-anti-CD4, PE-anti-CD56 and Pacific Blue-anti-CD16) and either of the cytokines IL-2, IL-10 and IFN-γ (anti-cytokine antibodies were all APC-labeled). The cells were analyzed by flow cytometry. The fraction of cells with intracellular IL-2, IFN-γ, IL-10 and […] was then determined in different cellular populations.

human PBMCs [4] = assay: CTLA-4 expression on naive and memory T cells in human PBMC; details: 0.19-6.0 μM; one day post-stimulation; vs vehicle
Description: PBMC cells from a single donor were cultured overnight with additional irradiated antigen-presenting cells (APC) in the presence of various concentrations of GPR174 inhibitory compound 10 (0.019 to 6 μM) or equivalent concentrations of vehicle (DMSO). Anti-CD3 (OKT3) was then added to the cultures for an additional 24 hours. The cells were analyzed by flow cytometry for expression of FOXP3, CTLA-4, CD4, CD3, CD45RA and CD25.

human PBMC = assay: IL-2 in supernatants of human PBMC stimulated with anti-CD3 and anti-CD28, ELISA; details: human PBMC donor 8, 24 hours post-stimulation; compound 10 1 μM, ZM-241385 0.1 μM, APCP 10 μM; FIG. 71
Description: Human PBMCs, obtained from a human volunteer donor (donor 8), were dispensed in X-vivo15 media (Lonza) supplemented with Glutamax, penicillin and streptomycin, at density of 1×10^6 cells/well in a 96-well flat-bottom plate and were cultured in quadruplicate for 3 hours in the presence of:
GPR174 inhibitory compound 10 (1 μM);
CD73 inhibitory compound, adenosine 5′-(a,p-methylene)diphosphate sodium salt (APCP, Tocris, 10 μM);
Combinations of the above agents;
After which 1 μg/mL anti-CD3 antibody (UCHT1) and 0.1 μg/mL anti-CD28 antibody (CD28.2) were added to activate T cells. Supernatants from these cells were collected at 24 hours post-stimulation and the levels of IL-2 were determined by ELISA.

What does the source list for `CC1CCN(c2cc(N3CCN(S(=O)(=O)c4ccccc4)CC3)c([N+](=O)[O-])cc2F)CC1` [compound 10]?
percentage of FoxP3+Helios+ (nTreg) cells in the CD4+ cell population (human PBMCs [1]; Example 6, day 7 post-stimulation, 100 μM, vs vehicle): significantly reduced; percentage of FoxP3+Helios+ (nTreg) cells in the CD4+ cell population (human PBMCs [1]; Example 8, day 7, single donor, 3, 10, 30 μM): significantly reduced; FoxP3+Helios+ (nTreg) cells in the CD4+ cell population, fraction of vehicle (human PBMCs [1]; Example 9, day 7, eight donors, 30 μM): significantly reduced; percentage of FoxP3+Helios− cells in the CD4+ cell population (human PBMCs [1]; day 3 post-stimulation, 100 μM, vs vehicle): significantly increased; quantities of cytokines produced during splenocyte allogeneic stimulation [2]: strong alteration; intracellular IFN-γ production by cell type (human PBMCs [3]; 0.1-3.0 μM): enhanced in CD4 and CD8 positive T cells, as well as in NK cells; intracellular IL-2 production by cell type (human PBMCs [3]; 0.1-3.0 μM): induced specifically in T cells, both CD4 and CD8 positive; intracellular IL-10 production by cell type (human PBMCs [3]; 0.1-3.0 μM): induced specifically in T cells, both CD4 and CD8 positive; intracellular TNF-α production by cell type (human PBMCs [3]; 0.1-10 μM): enhanced in CD4 and CD8 positive T cells, as well as in NK cells; CTLA4 expression in memory Treg cells (CD45RA−FOXP3+) (human PBMCs [4]): reduced; CTLA4 expression in memory non-Treg cells (CD45RA−FOXP3−) (human PBMCs [4]): reduced; CTLA4 expression in naive Treg cells (CD45RA+FOXP3+) (human PBMCs [4]): reduced; CTLA4 expression in naive non-Treg cells (CD45RA+FOXP3−) (human PBMCs [4]): reduced; increase of IL-2 levels (human PBMC): 1.4 fold
